The source made the active and inactive calls. No cut-off for these calls is given here.
Legend:
[1] = Toxicity in BALB/c mouse assessed as lung lesions at 2.5 to 10 mg/kg, iv administered for 2 hrs and measured after 12 hrs by H and E staining based assay; assay type: organism-based; settings: in vivo, 14 h, dose 2.5-10 mg/kg
[2] = Toxicity in BALB/c mouse assessed as pathological damage in lung at 10 mg/kg, po administered for 2 hrs by H and E staining based analysis; assay type: organism-based; settings: in vivo
Mus musculus [3] = test: Antiinflammatory activity in LPS-induced BALB/c sepsis mouse model assessed as reduction in IL-6 level in serum at 2.5 to 10 mg/kg, iv administered for 2 hrs and measured after 12 hrs by ELISA analysis; assay type: functional, organism-based; settings: dose 2.5-10 mg/kg, time 14.0 hrs
Mus musculus [4] = test: Antiinflammatory activity in LPS-induced BALB/c sepsis mouse model assessed as reduction in TNF-alpha level in serum at 2.5 to 10 mg/kg, iv administered for 2 hrs and measured after 12 hrs by ELISA analysis; assay type: functional, organism-based; settings: dose 2.5-10 mg/kg, time 14.0 hrs
[5] = Toxicity in BALB/c mouse assessed as increase in survival rate at 10 mg/kg, po administered for 3 days; assay type: organism-based; settings: in vivo, 72 h, time 3 day
RAW264.7 [6] = test: Antiinflammatory activity in LPS-induced mouse RAW264.7 cells assessed as reduction in TAK1-TAB1 complex formation incubated for 2 hrs vy immunoprecipitation analysis; assay type: functional, cell-based
RAW264.7 [7] = test: Antiinflammatory activity in LPS-induced mouse RAW264.7 cells assessed as inhibition of TNF-alpha level at 20 uM incubated for 24 hrs by ELISA method relative to control; assay type: functional
[8] = Toxicity in BALB/c mouse assessed as animal survival at 500 mg/kg, po administered for 2 hrs; assay type: organism-based; settings: in vivo
[9] = Toxicity in BALB/c mouse assessed as histopathological lesions in lung at 10 mg/kg, po in presence of 4a-benzyl-12-ethyl-(6aS,6bR,9R,13aR)-9-(hydroxymethyl)-2,2,6a,6b,9,13a-hexamethyl-1,3,4,5,6,6a,6b,7,8,8a,9,13,13a,13b,14,15b-hexadecahydropiceno[2,3-d]isoxazole-4a,12(2H)-dicarboxylate by H and E staining based analysis; assay type: organism-based; settings: in vivo
[10] = Toxicity in BALB/c mouse assessed as animal survival at 750 mg/kg, po administered for 2 hrs; assay type: organism-based; settings: in vivo
Mus musculus [11] = test: Antiinflammatory activity in LPS-induced BALB/c sepsis mouse model assessed as decrease in serum SOD level at 2.5 to 10 mg/kg, iv administered for 2 hrs and measured after 12 hrs; assay type: functional, organism-based; settings: dose 2.5-10 mg/kg, time 14.0 hrs
[12] = Toxicity in BALB/c mouse assessed as histopathological lesions in liver at 10 mg/kg, po in presence of 4a-benzyl-12-ethyl-(6aS,6bR,9R,13aR)-9-(hydroxymethyl)-2,2,6a,6b,9,13a-hexamethyl-1,3,4,5,6,6a,6b,7,8,8a,9,13,13a,13b,14,15b-hexadecahydropiceno[2,3-d]isoxazole-4a,12(2H)-dicarboxylate by H and E staining based analysis; assay type: organism-based; settings: in vivo
[13] = Half life in BALB/c mouse at 10 mg/kg, po measured upto 24 hrs by LC/MS-MS analysis; assay type: ADME, organism-based; settings: in vivo
[14] = Toxicity in BALB/c mouse assessed as histopathological lesions in kidney at 10 mg/kg, po in presence of 4a-benzyl-12-ethyl-(6aS,6bR,9R,13aR)-9-(hydroxymethyl)-2,2,6a,6b,9,13a-hexamethyl-1,3,4,5,6,6a,6b,7,8,8a,9,13,13a,13b,14,15b-hexadecahydropiceno[2,3-d]isoxazole-4a,12(2H)-dicarboxylate by H and E staining based analysis; assay type: organism-based; settings: in vivo
RAW264.7 [15] = test: Antiinflammatory activity in LPS-induced mouse RAW264.7 cells assessed as inhibition of IL-6 level at 20 uM incubated for 24 hrs by ELISA method relative to control; assay type: functional
[16] = AUC (0 to infinity) in BALB/c mouse at 10 mg/kg, po measured upto 24 hrs by LC/MS-MS analysis; assay type: ADME, organism-based; settings: in vivo
Mus musculus [17] = test: Antiinflammatory activity in LPS-induced BALB/c sepsis mouse model assessed as decrease in serum MDA level at 2.5 to 10 mg/kg, iv administered for 2 hrs and measured after 12 hrs; assay type: functional, organism-based; settings: dose 2.5-10 mg/kg, time 14.0 hrs
[18] = Toxicity in BALB/c mouse assessed as liver lesions at 2.5 to 10 mg/kg, iv administered for 2 hrs and measured after 12 hrs by H and E staining based assay; assay type: organism-based; settings: in vivo, 14 h, dose 2.5-10 mg/kg
Mus musculus [19] = test: Antiinflammatory activity in LPS-induced BALB/c sepsis mouse model assessed as decrease in serum BUN level at 2.5 to 10 mg/kg, iv administered for 2 hrs and measured after 12 hrs; assay type: functional, organism-based; settings: dose 2.5-10 mg/kg, time 14.0 hrs
RAW264.7 [20] = test: Antiinflammatory activity in LPS-induced mouse RAW264.7 cells assessed as reduction in TNF-alpha release incubated for 24 hrs by ELISA method; assay type: functional, cell-based; settings: dose 2.5-10 µM
RAW264.7 [21] = test: Antiinflammatory activity in LPS-induced mouse RAW264.7 cells assessed as reduction in IL-6 release incubated for 24 hrs by ELISA method; assay type: functional, cell-based; settings: dose 2.5-10 µM
Mus musculus [22] = test: Antiinflammatory activity in LPS-induced BALB/c sepsis mouse model assessed as decrease in serum AST level at 2.5 to 10 mg/kg, iv administered for 2 hrs and measured after 12 hrs; assay type: functional, organism-based; settings: dose 2.5-10 mg/kg, time 14.0 hrs
Mus musculus [23] = test: Antiinflammatory activity in LPS-induced BALB/c sepsis mouse model assessed as decrease in serum ALT level at 2.5 to 10 mg/kg, iv administered for 2 hrs and measured after 12 hrs; assay type: functional, organism-based; settings: dose 2.5-10 mg/kg, time 14.0 hrs
[24] = Toxicity in BALB/c mouse assessed as change in body weight at 10 mg/kg, po administered for 3 days; assay type: organism-based; settings: in vivo, 72 h, time 3 day
[25] = Toxicity in BALB/c mouse assessed as pathological damage in heart at 10 mg/kg, po administered for 2 hrs by H and E staining based analysis; assay type: organism-based; settings: in vivo
[26] = Toxicity in BALB/c mouse assessed as change in MDA level in serum at 10 mg/kg, po; assay type: organism-based; settings: in vivo
[27] = Cmax in BALB/c mouse at 10 mg/kg, po measured upto 24 hrs by LC/MS-MS analysis; assay type: ADME, organism-based; settings: in vivo
[28] = Toxicity in BALB/c mouse assessed as pathological damage in kidney at 10 mg/kg, po administered for 2 hrs by H and E staining based analysis; assay type: organism-based; settings: in vivo
RAW264.7 [29] = test: Cytotoxicity against mouse RAW264.7 cells assessed as cell viability at 40 uM measured after 24 hrs by MTT assay; assay type: toxicity, cell-based; settings: raw264.7, 24 h
[30] = Toxicity in BALB/c mouse assessed as kidney lesions at 2.5 to 10 mg/kg, iv administered for 2 hrs and measured after 12 hrs by H and E staining based assay; assay type: organism-based; settings: in vivo, 14 h, dose 2.5-10 mg/kg
[31] = AUC (0 to t) in BALB/c mouse at 10 mg/kg, po measured upto 24 hrs by LC/MS-MS analysis; assay type: ADME, organism-based; settings: in vivo
Mus musculus [32] = test: Antiinflammatory activity in LPS-induced BALB/c sepsis mouse model assessed as decrease in serum SCr level at 2.5 to 10 mg/kg, iv administered for 2 hrs and measured after 12 hrs; assay type: functional, organism-based; settings: dose 2.5-10 mg/kg, time 14.0 hrs
[33] = Tmax in BALB/c mouse at 10 mg/kg, po measured upto 24 hrs by LC/MS-MS analysis; assay type: ADME, organism-based; settings: in vivo
[34] = Toxicity in BALB/c mouse assessed as pathological damage in spleen at 10 mg/kg, po administered for 2 hrs by H and E staining based analysis; assay type: organism-based; settings: in vivo
[35] = Toxicity in BALB/c mouse assessed as pathological damage in liver at 10 mg/kg, po administered for 2 hrs by H and E staining based analysis; assay type: organism-based; settings: in vivo
[36] = Toxicity in BALB/c mouse assessed as change in BUN level in serum at 10 mg/kg, po; assay type: organism-based; settings: in vivo
[37] = Toxicity in BALB/c mouse assessed as change in ALT level in serum at 10 mg/kg, po; assay type: organism-based; settings: in vivo
[38] = Toxicity in BALB/c mouse assessed as change in SOD level in serum at 10 mg/kg, po; assay type: organism-based; settings: in vivo
[39] = Toxicity in BALB/c mouse assessed as change in AST level in serum at 10 mg/kg, po; assay type: organism-based; settings: in vivo
[40] = Toxicity in BALB/c mouse assessed as histopathological lesions in kidney at 10 mg/kg, po by H and E staining based analysis; assay type: organism-based; settings: in vivo
[41] = Toxicity in BALB/c mouse assessed as histopathological lesions in liver at 10 mg/kg, po by H and E staining based analysis; assay type: organism-based; settings: in vivo
[42] = Toxicity in BALB/c mouse assessed as change in SCr level in serum at 10 mg/kg, po; assay type: organism-based; settings: in vivo

## CCOC(=O)c1noc2c1C[C@@]1(C)[C@@H](CC[C@]3(C)[C@@H]1CC=C1[C@@H]4CC(C)(C)CC[C@]4(C(=O)OCc4ccccc4)CC[C@]13C)[C@]2(C)COC(=O)CCC(=O)N1CCOCC1
[1]
  Activity: Non-toxic
[2]
  Activity: Non-toxic
Mus musculus [3]
  Activity: Active
Mus musculus [4]
  Activity: Active
[5]
  Activity: Non-toxic
RAW264.7 [6]
  Activity: Active
RAW264.7 [7]
  inhibition at 20 µM: 80%
[8]
  Activity: Non-toxic
[9]
  Activity: Non-toxic
[10]
  Activity: Toxic
Mus musculus [11]
  Activity: Active
[12]
  Activity: Non-toxic
[13]
  half-life: 5.42 h
[14]
  Activity: Non-toxic
RAW264.7 [15]
  inhibition at 20 µM: 69.6%
[16]
  AUC(0-inf): 9970 ng·h/mL
Mus musculus [17]
  Activity: Active
[18]
  Activity: Non-toxic
Mus musculus [19]
  Activity: Active
RAW264.7 [20]
  Activity: Dose-dependent-effect
RAW264.7 [21]
  Activity: Dose-dependent-effect
Mus musculus [22]
  Activity: Active
Mus musculus [23]
  Activity: Active
[24]
  Activity: Non-toxic
[25]
  Activity: Non-toxic
[26]
  Activity: Non-toxic
[27]
  Cmax: 2760 ng/mL
[28]
  Activity: Non-toxic
RAW264.7 [29]
  Activity: Non-toxic
[30]
  Activity: Non-toxic
[31]
  AUC(0-t) at 24 h: 9620 ng·h/mL
Mus musculus [32]
  Activity: Active
[33]
  Tmax: 2.25 h
[34]
  Activity: Non-toxic
[35]
  Activity: Non-toxic

## CCOC(=O)c1noc2c1C[C@@]1(C)[C@@H](CC[C@]3(C)[C@@H]1CC=C1[C@@H]4CC(C)(C)CC[C@]4(C(=O)OCc4ccccc4)CC[C@]13C)[C@]2(C)CO
[36]
  Activity: Non-toxic
RAW264.7 [7]
  inhibition at 20 µM: 52.4%
[37]
  Activity: Non-toxic
[13]
  half-life: 4.85 h
[38]
  Activity: Non-toxic
RAW264.7 [15]
  inhibition at 20 µM: 32.5%
[16]
  AUC(0-inf): 23400 ng·h/mL
[39]
  Activity: Non-toxic
[40]
  Activity: Non-toxic
[27]
  Cmax: 3930 ng/mL
[41]
  Activity: Non-toxic
RAW264.7 [29]
  Activity: Non-toxic
[31]
  AUC(0-t) at 24 h: 22700 ng·h/mL
[33]
  Tmax: 4 h
[42]
  Activity: Non-toxic

Reference: ChEMBL document CHEMBL6121038, “Design and Synthesis of Hederagenin Derivatives for the Treatment of Sepsis by Targeting TAK1 and Regulating the TAK1-NF-κB/MAPK Signaling” (J Med Chem, 2025)
